In publication PMC4669685, “Peptides derived from the dependence receptor ALK are proapoptotic for ALK-positive tumors” (Cell Death & Disease, 2015):
Where a SMILES comes first, the peptide text is derived from it. The star is where a group is joined. Myristoyl = CCCCCCCCCCCCCC(=O)*

How the values were obtained:
Format in all cases: cell-based, human
[1] = test system: Cost ALCL cells (NPM–ALK); assay: Cell viability assay (CellTiterGlo, ATP content); conditions: increasing doses, 48 h
Description: (§1) At the end of incubation, cell viability was assessed by measuring the ATP content of wells using the luminescence-based CellTiterGlo assay (Promega) with a Berthold Mithras (http://www.berthold.com) plate reader. Each culture condition was assayed in triplicate.

[2] = test system: SH-SY5Y neuroblastoma cells (ALK-F1174L); assay: Cell viability assay (CellTiterGlo, ATP content); conditions: increasing doses, 48 h
Description: as §1

[3] = test system: caspase 3 in Cost cells; assay: Western blot of caspase 3 cleavage; conditions: Cost cells treated 6 h; P36 10 μM, doxorubicin 2 μM; compared with culture medium
Description: Cells were washed once with PBS, pelleted, and extracted in RIPA buffer (150 mM NaCl, 20 mM Tris-HCl, pH 7.7, 4 mM EDTA, 0.5% Triton X-100) containing 10 μg/ml leupeptin, 2 μg/ml aprotinin, 1 mM 4-2-aminoethyl-benzenesulfonyl fluoride, 1 mM sodium orthovanadate, and 4 mM sodium fluoride for 30 min on ice. Cell extracts were either centrifuged at 10 000 × g for 20 min at 4 °C and the supernatant recovered, or sonicated for better extraction of nuclear proteins. The protein content was quantified using the Bio-Rad (www.biorad.com) Bradford protein assay. For western blotting, total cell proteins were subjected to SDS-polyacrylamide gel electrophoresis (SDS-PAGE) in a 4–12% bis/tris acrylamide (Novex NuPAGE, Invitrogen) gradient gel using the Nupage system with Mops SDS buffer under reducing conditions and transferred for 3 h at 60 V onto a nitrocellulose membrane. The blots were hybridized with the following primary antibodies:
ZAL4 anti-human ALK rabbit monoclonal antibody (1/200, Invitrogen), phospho-ALK (Y1604) (1/1000, #3341, Cell Signaling Technology, www.cellsignal.com) rabbit antiserum, mouse monoclonal anti-caspase 3 (1/200, sc-7148, Santa Cruz Biotechnologies, www.scbt.com), rabbit polyclonal anti-p53 (1/500, #554167, BD Pharmingen, www.bdbiosciences.com) and rabbit polyclonal anti-GAPDH (1/2000, Millipore, www.millipore.com) antibodies. […]

CCCCCCCCCCCCCC(=O)N[C@@H](CC(N)=O)C(=O)N[C@H](C(=O)N[C@H](C(=O)N[C@@H](CC(C)C)C(=O)N[C@H](C(=O)N[C@@H](CCCNC(=N)N)C(=O)NCC(=O)N[C@@H](CC(C)C)C(=O)NCC(=O)N[C@@H](Cc1c[nH]cn1)C(=O)NCC(=O)N[C@@H](C)C(N)=O)[C@@H](C)CC)[C@@H](C)O)[C@@H](C)CC [P12-5] (Myristoyl-NITLIRGLGHGA-NH2)
effect on cell viability (cytotoxicity) [1]: dose-dependent cytotoxicity

CCCCCCCCCCCCCC(=O)N[C@@H](CCCCN)C(=O)N[C@@H](CCC(=O)O)C(=O)N[C@H](C(=O)N1CCC[C@H]1C(=O)N[C@@H](CCCNC(=N)N)C(=O)N[C@@H](CCCCN)C(=O)N[C@@H](CC(N)=O)C(=O)N[C@H](C(=O)N[C@H](C(=O)N[C@@H](CC(C)C)C(=O)N[C@H](C(=O)N[C@@H](CCCNC(=N)N)C(N)=O)[C@@H](C)CC)[C@@H](C)O)[C@@H](C)CC)C(C)C [P12-4] (Myristoyl-KEVPRKNITLIR-NH2)
effect on cell viability (cytotoxicity) [1]: no effect

CCCCCCCCCCCCCC(=O)N[C@@H](CO)C(=O)N[C@@H](CO)C(=O)N[C@H](C(=O)N[C@@H](CO)C(=O)N[C@@H](CC(=O)O)C(=O)N[C@@H](CC(C)C)C(=O)N[C@@H](CCCCN)C(=O)N[C@@H](CCC(=O)O)C(=O)N[C@H](C(=O)N1CCC[C@H]1C(=O)N[C@@H](CCCNC(=N)N)C(=O)N[C@@H](CCCCN)C(N)=O)C(C)C)[C@@H](C)CC [P12-3] (Myristoyl-SSISDLKEVPRK-NH2)
effect on cell viability (cytotoxicity) [1]: dose-dependent cytotoxicity

CCCCCCCCCCCCCC(=O)N[C@@H](CC(=O)O)C(=O)N[C@@H](Cc1ccc(O)cc1)C(=O)N[C@@H](CC(N)=O)C(=O)N1CCC[C@H]1C(=O)N[C@@H](CC(N)=O)C(=O)N[C@@H](Cc1ccc(O)cc1)C(=O)N[C@@H](CS)C(=O)N[C@@H](Cc1ccccc1)C(=O)N[C@@H](C)C(=O)NCC(=O)N[C@@H](CCCCN)C(=O)N[C@H](C(N)=O)[C@@H](C)O [P12-1] (Myristoyl-DYNPNYCFAGKT-NH2)
effect on cell viability (cytotoxicity) [1]: no effect

CCCCCCCCCCCCCC(=O)N[C@@H](CCC(=O)O)C(=O)NCC(=O)N[C@@H](CC(C)C)C(=O)N[C@@H](CC(C)C)C(=O)N[C@@H](Cc1ccccc1)C(=O)N[C@H](C(=O)N[C@@H](Cc1ccc(O)cc1)C(=O)N[C@@H](Cc1c[nH]cn1)C(=O)N[C@H](C(=O)N[C@H](C(=O)N[C@@H](CCCCN)C(=O)N[C@@H](CCCNC(=N)N)C(=O)N[C@@H](CC(=O)O)C(=O)N[C@@H](Cc1ccc(O)cc1)C(=O)NCC(=O)N[C@@H](CC(N)=O)C(=O)N[C@@H](CC(N)=O)C(=O)N[C@@H](CC(C)C)C(=O)N[C@@H](C)C(=O)N[C@@H](CC(=O)O)C(=O)N[C@@H](CO)C(=O)N[C@H](C(=O)NCC(=O)N1CCC[C@H]1C(=O)NCC(=O)N[C@@H](CC(N)=O)C(=O)N[C@H](C(=O)N[C@@H](CO)C(=O)N[C@@H](C)C(=O)N1CCC[C@H]1C(=O)N[C@@H](CO)C(=O)N[C@H](C(=O)N[C@@H](CS)C(=O)N[C@@H](CCCCN)C(=O)N[C@@H](CCCNC(=N)N)C(=O)N[C@@H](CCCCN)C(N)=O)[C@@H](C)CC)[C@@H](C)O)[C@@H](C)CC)[C@@H](C)O)C(C)C)[C@@H](C)CC [P36scr] (Myristoyl-EGLLFIYHVTKRDYGNNLADSIGPGNTSAPSICKRK-NH2)
effect on cell viability (cytotoxicity) [1]: failed to affect | effect on cell viability (cytotoxicity) [2]: failed to affect

COc1cccc2c1C(=O)c1c(O)c3c(c(O)c1C2=O)C[C@@](O)(C(=O)CO)C[C@@H]3O[C@H]1C[C@H](N)[C@H](O)[C@H](C)O1 [doxorubicin]
caspase 3 cleavage (western blot) [3]: increased caspase 3 cleavage
